According to patent US9474774B2, “Pyridine alkaloids, preparation process thereof, and the uses of the pyridine alkaloids” (FOOD INDUSTRY RESEARCH AND DEVELOPMENT INSTITUTE, priority 2010, dated 2016):
“And” between values parts separate entries of the source, which are not always exact repeats. Identical values can stand only once. Like-named read-outs stand apart in the source and are kept apart here.

What was measured:
[1] = test system: LPS-stimulated macrophage cells RAW264.7; assay: Inhibition of NO production induced by LPS (Griess reagent); format: cell-based, murine; conditions: Mus musculus, LPS 1 μg/mL, 24 hours
Description: (§1) The murine macrophage cell line RAW264.7 (BCRC 60001=ATCC TIB-71) was cultured in Dulbecco's modified Eagle's medium (DMEM, Gibco BRL Life Technologies, Inc.) supplemented with 10% heat inactivated fetal bovine serum (FBS) and incubated at 37° C. in a humidified 5% CO2 atmosphere with a 96-well flat-bottomed culture plate. After 24 hours, the condition medium was replaced with fresh DMEM and FBS. Then the three test compounds, Monasnicotinates A, C and D, (0, 1, 5, 10, and 20 μg/mL) were added respectively in the presence of lipopolysaccharide (LPS, 1 μg/mL; Sigma, Cat no: L-2654), and the plates were incubated at the same condition for 24 hours.
(§2) The cultured cells were then centrifuged and the supernatants were used for NO production measurement, with a MTT (3-(4,5-dimethylthiazol-2yl)-2,5-diphenyl tetrazolium bromide) assay to determine cell viability. The supernatant was mixed with an equal volume of the Griess reagent (1% sulfanilamide, 0.1% N-(1-naphthyl)ethyl-enediamine dihydrochloride in 2.5% phosphoric acid solution) and incubated for 10 min at room temperature. Nitrite concentration was determined by measuring the absorbance at 540 nm using an ELISA plate reader (μ Quant) (see Mosman, T., 1983, “Rapid colorimetric assay for cellular growth and survival: application to proliferation and cytotoxicity assays.” J. Immunol. Methods, 65: 55-63). The MTT colorimetric assay was modified from that of Mosmann (see Johansson, M., et al., 2002, “Biologically active secondary metabolites from the ascomycete A111-95.” J. Antibiot., 55: 104-106). The test is based upon the selective ability of living cells to reduce the yellow soluble salt, MTT, to a purple-blue insoluble formazan. MTT (Merck; dissolved in phosphate-buffered saline at 5 mg/mL) solution was added onto the attached cells mentioned above (10 μl per 100 μl culture) and incubated at 37° C. for 4 hours. Then, DMSO was added and the amount of colored formazan metabolite formed was determined by absorbance at 550 nm. The optical density of formazan formed in control (untreated) cells was taken as 100% viability.

3T3-L1 preadipocytes [2] = assay: 3T3-L1 preadipocyte differentiation, DMI differentiation model; format: cell-based; conditions: for triglyceride droplets under inverted microscope: 5 μg/ml, vs DMI control; for TG (%): sample concentration 5 μg/ml, control = 100
Description: (§3) Preadipocytes were prepared according to the method described by Waki et al., (2007, “The small molecule harmine is an antidiabetic cell-type-specific regulator of PPARγ expression.” Cell Metabolism, 5(5): 357-370) and Huang et al., (2005, “Herbal or natural medicines as modulators of peroxisome proliferator-activated receptors and related nuclear receptors for therapy of metabolic syndrome.” Basic and Clinical Pharmacology and Toxicology, 96: 3-14.). Preadipocytes were cultured in DMEM (Dulbecco's Modified Eagle's Medium-high glucose, Sigma D-7777) containing 10% of fetal bovine serum (FBS) and incubated at 37° C. in a 5% CO2 incubator.
(§4) Before the differentiation induction experiments, the cells were plated into either 96- or 24-well plates (the concentration of cells in each well was about 2×10^4/cm^2). The plates were incubated for about two days to allow the cells to proliferate to confluence, and then maintained for another two days. The medium was changed to different differentiation media according to different experiments. The day of switching to differentiation medium was designated as day zero.
The differentiation medium used in DMI differentiation model comprised an three-in-one differentiation inducer (DMI): dexamethasone (Sigma D-4902, dissolved in ethanol to produce a 0.25M stock solution), isobutyl-methylxanthine (Sigma 1-5879, dissolved in DMSO to produce a 0.5M stock solution), and insulin (Sigma I-6634, dissolved in 0.01N HCl to produce a 10 mg/ml stock solution). The final concentrations of dexamethasone, isobutyl-methylxanthine and insulin were 0.25 μM, 0.5 mM and 5 μg/ml, respectively.
The four test compounds, Monasnicotinates A, B, C and D, were dissolved in DMSO respectively to produce a 5 mg/ml stock solution. One ml of the differentiation medium containing test sample was added to each well of the 24-well 3T3-L1 preadipocyte plates (the final concentration of the sample in each well was 5 μg/ml). The control group was the culture with only the differentiation medium and no sample. The cultures were incubated at 37° C. in a 5% CO2 incubator for three days, and then the medium was replaced by DMEM with 10% FBS. The cultures were maintained until day 9 or day 10, and the amounts of triglyceride in the cells were analyzed. The extents of differentiation (the amounts of oil droplets) were also examined under an inverted microscope.
(§5) The 96-well plates were rinsed with PBS, and 200 μl of PBS and 5 μl of AdipoRed reagent (Lonze Walkersville, Inc., Walkersville, Md., USA, Catalog No. PT-7009) were added to each well. After 10 to 15 minutes, the plates were read with a spectrofluorometer (Infinite M200) set at an excitation wavelength of 485 nm and an emission wavelength of 572 nm. The fluorescent data of the experiment group was divided by the fluorescent data of the control group to obtain a percentage of induction activity.
(§6) The 24-well plates were rinsed with PBS, and the cells were washed off with 0.1 ml of 1% Triton λ 100 per well. The cells were then frozen, thawed and centrifuged (10,000 rpm/5 min) and the supernatant were collected. An aliquot of 0.05 ml of the supernatant was analyzed using Triglycerol assay Kit (Audit Diagnostics, Ltd.).
(§7) The protein amounts were analyzed using Bio-Rad Dc Protein assay reagent (Bio-Rad). The triglyceride concentration was divided by the protein concentration obtained using Bio-Rad Dc Protein assay to calculated the amount (μg) of triglyceride per μg protein. The triglyceride amounts of the experiment groups were divided by those of the control groups to determine the differentiation induction activity of the samples.
(§8) 3T3-L1 preadipocytes differentiation assay was conduct according to Example 5.

3T3-L1 preadipocytes [3] = assay: 3T3-L1 preadipocyte differentiation, insulin differentiation model; format: cell-based; conditions: sample concentration 2 μg/ml, control = 100
Description: as §3, §4
The differentiation medium used in insulin differentiation model was DMEM with 10% FBS comprising 10 μg/ml of insulin. Differentiation media containing each of the four test compounds, Monasnicotinates A, B, C and D, were added to each well of the 24- or 96-well 3T3-L1 preadipocyte plates (the final concentration of the test compounds in each well is 2 μg/ml). The control group was the culture with only the differentiation medium and no sample. The cultures were incubated at 37° C. in a 5% CO2 incubator for seven days (during the period, the differentiation medium and sample were replaced with fresh ones twice), and then the medium was replaced by DMEM with 10% FBS. The cultures were maintained until day 9 or day 10. The cells of the experiment groups and control groups at day 9 or day 10 were stained with AdipoRed and the concentrations of triglyceride were analyzed.
as §5, §6, §7, §8

PPARγ [4] = molecular target: T1, PPARγ (Homo sapiens, UniProt P37231); assay: LanthaScreen TR-FRET PPARγ competitive binding assay
T1 construct: purchased Invitrogen
T1 sequence (P37231 204-505 limits assumed): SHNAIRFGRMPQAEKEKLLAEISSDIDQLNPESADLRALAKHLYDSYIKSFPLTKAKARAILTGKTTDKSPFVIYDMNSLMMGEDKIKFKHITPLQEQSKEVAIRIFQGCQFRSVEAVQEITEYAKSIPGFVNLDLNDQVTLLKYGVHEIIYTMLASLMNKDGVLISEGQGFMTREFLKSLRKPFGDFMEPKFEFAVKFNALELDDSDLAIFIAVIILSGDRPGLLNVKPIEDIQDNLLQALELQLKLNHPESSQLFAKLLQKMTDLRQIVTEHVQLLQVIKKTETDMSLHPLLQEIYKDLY
Description: Monasnicotinates A, B, C and D were prepared according to Example 3 and Ethanol and ethyl acetate extracts of BCRC 930146-fermented rice were prepared according to Example 7. The binding activity of Monasnicotinates A, B, C and D and ethanol and ethyl acetate extracts of BCRC 930146-fermented rice to PPARγ and PPARα were analyzed using competitive binding assay kits (LanthaScreen TR-FRET PPARγ Binding Assay and Invitrogen PPARα Competitive Binding Assay) according to their instructions. Troglitazone and arachidonic acid were used as reference substances for PPARγ and PPARα ligand, respectively.

adiponectin = assay: Cytosolic adiponectin ELISA in differentiated 3T3-L1 cells; format: cell-based, Mouse; conditions: insulin model and DMI model, 5 μg/mL (FIG. 7)
Description: 3T3-L1 cells were treated with Monasnicotinates A, B, C and D (prepared in Example 3) as described in Example 5. Nuclear and cytosolic proteins of the differentiated 3T3-L1 cells were extracted and the nuclear PPARγ and cytosolic adiponectin contents were analyzed using commercial kits.
(§9) 3T3-L1 cells were incubated and differentiated on petri dish (9 cm) for 9 days and washed with PBS. 1 ml of buffer A working solution (Affymetrix® Nuclear Extraction Kits, Panomics, Inc.; freshly prepared according to the instructions) was added to the petri dish, and the petri dish was placed on ice and shaken for 10 minutes on a shaker. Cells on the petri dish were transferred to a 1.5 ml centrifuge tube and centrifuged at 14,000 rpm for 3 minutes. The supernatant, the cytosol fraction, was collected for further analysis. 0.5 ml of buffer B working solution (Affymetrix® Nuclear Extraction Kits, Panomics, Inc.; freshly prepared according to the instructions) was added to the centrifuge tube to re-suspend the cell pellet and the centrifuge tube was placed on ice and shaken for two hours on a shaker. The centrifuge tube was then centrifuged at 14,000 rpm for 5 minutes. The supernatant, the nucleus fraction, was collected for further analysis.
Cytosolic adiponectin in the cytosol fraction was analyzed using Quantikine Mouse Adiponectin immunoassay (R&D systems) according to the instructions.

PPARγ [5] = assay: Nuclear PPARγ ELISA in differentiated 3T3-L1 cells; format: cell-based; conditions: final sample concentration 5 μg/mL, control: medium only
Description: Nuclear and cytosolic proteins of the differentiated 3T3-L1 cells were extracted and the nuclear PPARγ and cytosolic adiponectin contents were analyzed using commercial kits.
as §9
Nuclear PPARγ in the nucleus fraction was analyzed using Transcription Factor PPARγ ELISA Kit (Panomics, Inc.) according to the instructions.

RAW264.7 = assay: MTT cell viability assay; format: cell-based, murine
Description: as §1, §2

[6] = test system: LPS-stimulated macrophage cells RAW264.7; conditions: literature value; read-out: IC50, production of NO by LPS-stimulated RAW264.7 (reported, Motai and Kitanaka 2005); cited from earlier work

IC50 (PPARγ [4]) [µM] | SMILES | IC50 [1] | triglyceride droplets under inverted microscope (3T3-L1 preadipocytes [2]) | TG (%) (3T3-L1 preadipocytes [2]) | AdipoRed (%) (3T3-L1 preadipocytes [3]) | TG (%) (3T3-L1 preadipocytes [3]) | concentration of cytosolic adiponectin (adiponectin) | PPARγ expression (% of control) (PPARγ [5]; DMI model) | PPARγ expression (% of control) (PPARγ [5]; Insulin model) | Cytotoxicity (MTT assay) (RAW264.7; 1-10 μg/mL, with LPS treatment for 24 hours) | IC50 [6] [µM] | Cytotoxicity (MTT assay) (RAW264.7; 1-20 μg/mL, with LPS treatment for 24 hours) | Cytotoxicity (MTT assay) (RAW264.7; at 10 μg/mL)
42 | C/C=C/c1cc(/C=C(\CC(=O)CCCCC)C(C)=O)c(C(=O)OC)cn1 [Monasnicotinate A, methyl-4-((E)-2-acetyl-4-oxonon-1-enyl)-6-((E)-prop-1-enyl)nicotinate] | 5.72 µg/mL and 16 µM | more triglyceride droplets than the control culture | 159 | 159 | 128 | increase | 100 ± 7 % of control | 139 ± 1 % of control | did not show any significant cytotoxicity |  |  | 
 | O=c1c(O)c(-c2ccc(O)c(O)c2)oc2cc(O)cc(O)c12 [quercetin, reference compound] | 26.4 µM |  |  |  |  |  |  |  |  | 26.8 |  | 
64.5 | CCCCCC(=O)C/C(=C\c1cc(CCC)ncc1C(=O)OC)C(C)=O [Monasnicotinate D, (E)-methyl-4-(2-acetyl-4-oxonon-1-enyl)-6-propylnicotinate] | 9.4 µg/mL and 24.8 µM | more triglyceride droplets than the control culture | 204 | 247 | 169 | increase | 166 ± 5 % of control | 424 ± 19 % of control |  |  | did not show any significant cytotoxicity | 
11 | C/C=C/c1cc(/C=C(\CC(=O)CCCCC)C(C)=O)c(C(=O)OCC)cn1 [Monasnicotinate B, ethyl-4-((E)-2-acetyl-4-oxonon-1-enyl)-6-((E)-prop-1-enyl)nicotinate] |  | more triglyceride droplets than the control culture | 175 | 287 | 132 | increase | 147 ± 2 % of control | 237 ± 9 % of control |  |  |  | 
18.2 | C/C=C/c1cc(/C=C(\CC(=O)CCCCCCC)C(C)=O)c(C(=O)OC)cn1 [Monasnicotinate C, methyl-4-((E)-2-acetyl-4-oxoundec-1-enyl)-6-((E)-prop-1-enyl)nicotinate] |  | more triglyceride droplets than the control culture | 132 | 209 | 145 | increase | 115 ± 1 % of control | 333 ± 15 % of control |  |  |  | significant cytotoxic effect
